Among the data in ChEMBL document CHEMBL1151034, “De novo design of nonpeptidic HIV-1 protease inhibitors: Incorporation of structural water” (Bioorg Med Chem Lett, 1994) are IC50 and inhibition values, retold here.

The structures appear in SMILES notation. Some results are limits rather than exact numbers.

The target of experiment [1] is Human immunodeficiency virus type 1 protease (Human immunodeficiency virus 1, UniProt Q72874). Briefly: (§1) Inhibitory activity against HIV-1 protease.
The target in experiment [2] is Human immunodeficiency virus type 1 protease (Human immunodeficiency virus 1) (UniProt Q72874). The description is as §1. The conditions noted are these: concentration not given here.
Experiment [3] has the same target. The conditions noted are these: 100 uM.
Description: Inhibitory activity against HIV-1 protease at 100 uM concentration

In the case of `O=C1N(CC2CC2)[C@@H](Cc2ccccc2)C(O)[C@H](Cc2ccccc2)N1CC1CC1`, half-maximal inhibition in experiment [1] (IC50) was put at 9 µM. That is a single-digit micromolar value.

Turning to `O=C1N(Cc2ccc3ccccc3c2)[C@@H](Cc2ccccc2)C(O)[C@H](Cc2ccccc2)N1Cc1ccc2ccccc2c1`, the inhibition in experiment [2] is 6%. In experiment [1], `C=CCN1C(=O)N(CC=C)[C@@H](Cc2ccccc2)C(O)[C@@H]1Cc1ccccc1` displayed a 50% inhibitory concentration (IC50) of 53 µM. Compound `O=C1N(Cc2ccccc2)[C@@H](Cc2ccccc2)C(O)[C@H](Cc2ccccc2)N1Cc1ccccc1` gave a 50% inhibitory concentration (IC50) in experiment [1] of 89 µM. This IC50 lies about 1.7-fold higher than the previous one. Regarding `O=C1N[C@@H](Cc2ccccc2)C(O)[C@H](Cc2ccccc2)N1`, in experiment [1], the 50% inhibitory concentration (IC50) is > 100 µM. This compound showed an inhibition in experiment [3] of 35%.

Usually IC50 stands for the concentration that gives 50% inhibition. A word on the inhibition: it is how much of the control response was suppressed.
